In the NIST ThermoML archive (doi:10.1021/acs.jced.5b00989):
Numbers after ± are expanded uncertainties.

Experiment: molar heat capacity at constant pressure; xn = mol fraction of the nth substance listed
Details: 100 kPa, Liquid, Small sample (50 mg) DSC

O=C(CO)[C@@H](O)[C@H](O)[C@H](O)CO [D-fructose] + C[N+](C)(C)CCO.[Cl-]
x2 = 0.67
Details	molar heat capacity at constant pressure [J/K/mol]
298.15 K	311.5 ± 7.6
300.65 K	313.8 ± 7.7
303.15 K	316.7 ± 7.8
305.65 K	319.4 ± 7.8
308.15 K	322 ± 7.9
310.65 K	324.2 ± 7.9
313.15 K	326.2 ± 8
315.65 K	328.3 ± 8
318.15 K	330.5 ± 8.1
320.65 K	332.6 ± 8.2
323.15 K	334.1 ± 8.2
325.65 K	334.9 ± 8.2
328.15 K	335.8 ± 8.2
330.65 K	336.1 ± 8.2
333.15 K	335.8 ± 8.2
335.65 K	335.7 ± 8.2
338.15 K	335.2 ± 8.2
340.65 K	334.7 ± 8.2
343.15 K	335.2 ± 8.2
345.65 K	335.8 ± 8.2
348.15 K	336.6 ± 8.2
350.65 K	337.7 ± 8.3
353.15 K	340.1 ± 8.3

C[N+](C)(C)CCO.[Cl-] [choline chloride] + O=C[C@H](O)[C@@H](O)[C@H](O)[C@H](O)CO
x1 = 0.67
Details	molar heat capacity at constant pressure [J/K/mol]
298.15 K	327.5 ± 8
300.65 K	329.1 ± 8.1
303.15 K	330.7 ± 8.1
305.65 K	332.4 ± 8.1
308.15 K	334.5 ± 8.2
310.65 K	336.7 ± 8.3
313.15 K	338.6 ± 8.3
315.65 K	340.6 ± 8.3
318.15 K	342.5 ± 8.4
320.65 K	344.5 ± 8.4
323.15 K	346 ± 8.5
325.65 K	347.2 ± 8.5
328.15 K	348.4 ± 8.5
330.65 K	349.5 ± 8.6
333.15 K	350.6 ± 8.6
335.65 K	350.9 ± 8.6
338.15 K	351.4 ± 8.6
340.65 K	352 ± 8.6
343.15 K	352.6 ± 8.6
345.65 K	353.8 ± 8.7
348.15 K	354.2 ± 8.7
350.65 K	354.4 ± 8.7
353.15 K	356.3 ± 8.7

C[N+](C)(C)CCO.[Cl-] [choline chloride] + Oc1ccccc1
x1 = 0.25
Details	molar heat capacity at constant pressure [J/K/mol]
298.15 K	219.3 ± 5.4
300.65 K	220.3 ± 5.4
303.15 K	221.2 ± 5.4
305.65 K	222.3 ± 5.4
308.15 K	223.3 ± 5.5
310.65 K	224.2 ± 5.5
313.15 K	225.1 ± 5.5
315.65 K	225.8 ± 5.5
318.15 K	226.6 ± 5.6
320.65 K	227.1 ± 5.6
323.15 K	227.9 ± 5.6
325.65 K	228.6 ± 5.6
328.15 K	229.3 ± 5.6
330.65 K	230.2 ± 5.6
333.15 K	231.1 ± 5.7
335.65 K	231.9 ± 5.7
338.15 K	232.6 ± 5.7
340.65 K	233.1 ± 5.7
343.15 K	233.5 ± 5.7
345.65 K	234.3 ± 5.7
348.15 K	234.5 ± 5.7
350.65 K	235 ± 5.8
353.15 K	236.8 ± 5.8

O=C(O)CC(O)(CC(=O)O)C(=O)O [citric acid] + C[N+](C)(C)CCO.[Cl-]
x2 = 0.33
Details	molar heat capacity at constant pressure [J/K/mol]
298.15 K	422 ± 10
300.65 K	422.9 ± 10
303.15 K	424 ± 10
305.65 K	425.2 ± 10
308.15 K	426.1 ± 10
310.65 K	427.2 ± 10
313.15 K	428.7 ± 10
315.65 K	429.8 ± 10
318.15 K	430.6 ± 10
320.65 K	431.9 ± 11
323.15 K	433 ± 11
325.65 K	433.5 ± 11
328.15 K	435.4 ± 11
330.65 K	436.7 ± 11
333.15 K	437.5 ± 11
335.65 K	438.6 ± 11
338.15 K	439.7 ± 11
340.65 K	440.6 ± 11
343.15 K	442.1 ± 11
345.65 K	446.1 ± 11
348.15 K	447.2 ± 11
350.65 K	446.8 ± 11
353.15 K	449.4 ± 11

O=C(O)C(=O)O [ethanedioic acid] + C[N+](C)(C)CCO.[Cl-]
x2 = 0.33
Details	molar heat capacity at constant pressure [J/K/mol]
298.15 K	270.8 ± 6.6
300.65 K	271.8 ± 6.7
303.15 K	272.1 ± 6.7
305.65 K	272.7 ± 6.7
308.15 K	273.6 ± 6.7
310.65 K	274.6 ± 6.7
313.15 K	275.4 ± 6.7
315.65 K	276.3 ± 6.8
318.15 K	276.8 ± 6.8
320.65 K	277 ± 6.8
323.15 K	277.1 ± 6.8
325.65 K	277.4 ± 6.8
328.15 K	277.8 ± 6.8
330.65 K	278.3 ± 6.8
333.15 K	278.7 ± 6.8
335.65 K	279.6 ± 6.8
338.15 K	280 ± 6.9
340.65 K	280.6 ± 6.9
343.15 K	281.2 ± 6.9
345.65 K	281.7 ± 6.9
348.15 K	281.9 ± 6.9
350.65 K	282.2 ± 6.9
353.15 K	282.9 ± 6.9
